For the experiment, the target named is T1, ERα protein (HiBiT-tagged) in ESR1_HiBiT KI MCF7 cells (Homo sapiens, UniProt P03372).
T1 sequence (P03372 1-595): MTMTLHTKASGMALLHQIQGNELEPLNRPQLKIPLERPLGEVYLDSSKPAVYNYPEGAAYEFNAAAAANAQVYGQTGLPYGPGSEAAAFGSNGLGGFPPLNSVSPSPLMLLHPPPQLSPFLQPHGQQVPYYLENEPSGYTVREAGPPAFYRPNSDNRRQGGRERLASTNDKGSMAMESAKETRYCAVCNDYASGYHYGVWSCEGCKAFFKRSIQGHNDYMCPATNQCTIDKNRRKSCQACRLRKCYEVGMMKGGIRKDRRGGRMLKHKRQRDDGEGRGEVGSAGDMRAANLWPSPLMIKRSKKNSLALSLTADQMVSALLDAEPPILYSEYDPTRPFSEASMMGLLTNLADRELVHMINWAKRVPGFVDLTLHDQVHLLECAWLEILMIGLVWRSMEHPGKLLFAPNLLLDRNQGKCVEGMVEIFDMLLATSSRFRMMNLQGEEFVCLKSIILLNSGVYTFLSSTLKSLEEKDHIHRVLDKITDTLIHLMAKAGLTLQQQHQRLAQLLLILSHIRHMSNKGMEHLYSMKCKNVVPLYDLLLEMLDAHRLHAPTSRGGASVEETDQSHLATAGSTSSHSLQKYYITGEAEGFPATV
As to the kind of experiment: Nano Glo HiBiT Lytic Degradation Assay. It counts as cell-based. Particulars: 6 hours with compound, 14-point dose response 1:3, bell-shape curve fit, half-maximal effect of first Hill model, read-out: MCF7 ESR1 HiBiT - (DC50). Put shortly: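 Lytic Nano-Glo HiBiT luminescence quantified ERα remaining after a 6 h, 37° C compound exposure of MCF7 cells carrying endogenous HiBiT-tagged ESR1. Dosing used 14 threefold dilutions from a 10 mM DMSO stock (0.1% DMSO final), run in duplicate. Signals were corrected for cell-free background and expressed relative to DMSO, and DC50 came from a bell-shaped curve fit (first Hill model half-maximum).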
(The HiBiT peptide binds its large partner to form an active luciferase.)

The record followed here is patent US20250388565A1, “ESTROGEN RECEPTOR ALPHA DEGRADERS AND METHODS OF USE THEREOF” (Relay Therapeutics, Inc., priority 2022, published 2025).

Usually DC50 stands for the concentration at which degradation of the target reaches its halfway point.

As for `COc1cccc([C@@H]2OCc3cc(O)ccc3[C@@H]2c2ccc(N3CCC(CN4CCN(c5ccc6c(c5)CN([C@H]5CCC(=O)NC5=O)C6=O)CC4)CC3)cc2)c1` [Compound I-374, (S)-3-(5-(4-((1-(4-((3R,4S)-7-hydroxy-3-(3-methoxyphenyl)isochroman-4-yl)phenyl)piperidin-4-yl)methyl)piperazin-1-yl)-1-oxoisoindolin-2-yl)piperidine-2,6-dione], the DC50 was 8 nM.

Regarding `Cc1cc([C@H]2OCc3cc(O)ccc3[C@H]2c2ccc(N3CCC(CN4CCN(c5ccc6c(c5)CN([C@H]5CCC(=O)NC5=O)C6=O)CC4)CC3)cc2)ccc1F` [Compound I-375, (S)-3-(5-(4-((1-(4-((3S,4R)-3-(4-fluoro-3-methylphenyl)-7-hydroxyisochroman-4-yl)phenyl)piperidin-4-yl)methyl)piperazin-1-yl)-1-oxoisoindolin-2-yl)piperidine-2,6-dione], the DC50 came to 0.89 nM.

Turning to `Cc1cc([C@@H]2OCc3cc(O)ccc3[C@@H]2c2ccc(N3CCC(CN4CCN(c5ccc6c(c5)CN([C@H]5CCC(=O)NC5=O)C6=O)CC4)CC3)cc2)ccc1F` [Compound I-376, (S)-3-(5-(4-((1-(4-((3R,4S)-3-(4-fluoro-3-methylphenyl)-7-hydroxyisochroman-4-yl)phenyl)piperidin-4-yl)methyl)piperazin-1-yl)-1-oxoisoindolin-2-yl)piperidine-2,6-dione], the DC50 was at least 10000 nM.

As for `Cc1cc(F)cc([C@H]2OCc3cc(O)ccc3[C@H]2c2ccc(N3CCC(CN4CCN(c5ccc6c(c5)CN([C@H]5CCC(=O)NC5=O)C6=O)CC4)CC3)cc2)c1` [Compound I-377, (S)-3-(5-(4-((1-(4-((3S,4R)-3-(3-fluoro-5-methylphenyl)-7-hydroxyisochroman-4-yl)phenyl)piperidin-4-yl)methyl)piperazin-1-yl)-1-oxoisoindolin-2-yl)piperidine-2,6-dione], the DC50 worked out at 0.62 nM.

As for `Cc1cc(F)cc([C@@H]2OCc3cc(O)ccc3[C@@H]2c2ccc(N3CCC(CN4CCN(c5ccc6c(c5)CN([C@H]5CCC(=O)NC5=O)C6=O)CC4)CC3)cc2)c1` [Compound I-378, (S)-3-(5-(4-((1-(4-((3R,4S)-3-(3-fluoro-5-methylphenyl)-7-hydroxyisochroman-4-yl)phenyl)piperidin-4-yl)methyl)piperazin-1-yl)-1-oxoisoindolin-2-yl)piperidine-2,6-dione], the half-maximal degradation concentration (DC50) was at least 10000 nM.

For `O=C1CCN(c2ccc(N3CCC4(CCN(CC5CCN(c6ccc([C@@H]7c8ccc(O)cc8CO[C@@H]7c7ccccc7)cc6)CC5)C4)CC3)cc2)C(=O)N1` [Compound I-391, 1-(4-(2-((1-(4-((3S,4R)-7-hydroxy-3-phenylisochroman-4-yl)phenyl)piperidin-4-yl)methyl)-2,8-diazaspiro[4.5]decan-8-yl)phenyl)dihydropyrimidine-2,4 (1H,3H)-dione], the DC50 came out at 0.42 nM.

For `Cc1cc(N2CCC3(CCN(CC4CCN(c5ccc([C@@H]6c7ccc(O)cc7CO[C@@H]6c6ccccc6)cc5)CC4)C3)CC2)ccc1N1CCC(=O)NC1=O` [Compound I-392, 1-(4-(2-((1-(4-((3S,4R)-7-hydroxy-3-phenylisochroman-4-yl)phenyl)piperidin-4-yl)methyl)-2,8-diazaspiro[4.5]decan-8-yl)-2-methylphenyl)dihydropyrimidine-2,4 (1H,3H)-dione], the DC50 came to 0.13 nM.

As for `Cn1nc(C2CCC(=O)NC2=O)c2ccc(N3CCN(CC4CCN(c5ccc([C@@H]6c7ccc(O)cc7CO[C@@H]6c6ccccc6)cc5)CC4)CC3)cc21` (stereo partly drawn) [Compound I-393, 3-[6-[4-[[1-[4-[(3S,4R)-7-hydroxy-3-phenyl-isochroman-4-yl]phenyl]-4-piperidyl]methyl]piperazin-1-yl]-1-methyl-indazol-3-yl]piperidine-2,6-dione], the DC50 is 0.36 nM.

On to `Cn1nc(N2CCC(=O)NC2=O)c2ccc(N3CCN(CC4CCN(c5ccc([C@@H]6c7ccc(O)cc7CO[C@@H]6c6ccccc6)cc5)CC4)CC3)cc21` [Compound I-396, 1-(6-(4-((1-(4-((3S,4R)-7-hydroxy-3-phenylisochroman-4-yl)phenyl)piperidin-4-yl)methyl)piperazin-1-yl)-1-methyl-1H-indazol-3-yl)dihydropyrimidine-2,4 (1H,3H)-dione], for which the DC50 turned out to be 0.99 nM.

Consider `O=C1CCC(n2cc3cc(N4CCN(CC5CCN(c6ccc([C@@H]7c8ccc(O)cc8CO[C@@H]7c7ccccc7)cc6)CC5)CC4)ccc3n2)C(=O)N1` (stereo partly drawn) [Compound I-397, 3-(5-(4-((1-(4-((3S,4R)-7-hydroxy-3-phenylisochroman-4-yl)phenyl)piperidin-4-yl)methyl)piperazin-1-yl)-2H-indazol-2-yl)piperidine-2,6-dione], for which the DC50 was determined as 0.61 nM.

As for `O=C1CCC(n2ncc3cc(N4CCN(CC5CCN(c6ccc([C@@H]7c8ccc(O)cc8CO[C@@H]7c7ccccc7)cc6)CC5)CC4)ccc32)C(=O)N1` (stereo partly drawn) [Compound I-398, 3-(5-(4-((1-(4-((3S,4R)-7-hydroxy-3-phenylisochroman-4-yl)phenyl)piperidin-4-yl)methyl)piperazin-1-yl)-1H-indazol-1-yl)piperidine-2,6-dione], the DC50 was 0.83 nM.

For the compound `NC(=O)C(CCC(=O)O)N1Cc2cc(N3CCN(CC4CCN(c5ccc([C@@H]6c7ccc(O)cc7CO[C@@H]6c6ccccc6)cc5)CC4)CC3)ccc2C1=O` (stereo partly shown) [Compound I-399], the DC50 was at least 10000 nM.

For the compound `NC(=O)CCC(C(=O)O)N1Cc2cc(N3CCN(CC4CCN(c5ccc([C@@H]6c7ccc(O)cc7CO[C@@H]6c6ccccc6)cc5)CC4)CC3)ccc2C1=O` (stereo partly shown) [Compound I-400], the DC50 was 7.75 nM.

Turning to `COc1cc(N2CCC(CN3CCN(c4ccc5c(c4)CN([C@H]4CCC(=O)NC4=O)C5=O)CC3)CC2)c(-c2ccccc2)cc1[C@@H]1CCC(F)(F)c2cc(O)ccc21` [Compound I-405, (S)-3-(5-(4-((1-(5-((R)-4,4-difluoro-6-hydroxy-1,2,3,4-tetrahydronaphthalen-1-yl)-4-methoxy-[1,1′-biphenyl]-2-yl)piperidin-4-yl)methyl)piperazin-1-yl)-1-oxoisoindolin-2-yl)piperidine-2,6-dione], the DC50 worked out at 1100 nM.

Take `COc1cc(N2CCC(CN3CCN(c4ccc5c(c4)CN([C@H]4CCC(=O)NC4=O)C5=O)CC3)CC2)c(-c2ccccc2)cc1[C@H]1CCC(F)(F)c2cc(O)ccc21` [Compound I-406]: the DC50 came out at 25 nM.

For the compound `C[C@@H]1CN(c2ccc3c(c2)CN([C@H]2CCC(=O)NC2=O)C3=O)CCN1CC1CCN(c2ccc([C@@H]3c4ccc(O)cc4CC[C@@H]3c3ccccc3)cc2)CC1` [II-2], the DC50 is 1 nM.

Regarding `O=C1CC[C@H](N2Cc3cc(N4C[C@@H]5C[C@H]4CN5CC4CCN(c5ccc([C@@H]6c7ccc(O)cc7CC[C@@H]6c6ccccc6)cc5)CC4)ccc3C2=O)C(=O)N1` [II-7], the DC50 was at least 10000 nM.

For the compound `O=C1CC[C@H](N2Cc3cc(N4C[C@@H]5C[C@H]4CN5CC4CCN(c5ccc([C@H]6c7ccc(O)cc7CC[C@H]6c6ccccc6)cc5)CC4)ccc3C2=O)C(=O)N1` [II-8], the DC50 was at least 10000 nM.

For `O=C1CC[C@H](N2Cc3cc(N4CCN(C5CCN(c6ccc([C@H]7c8ccc(O)cc8CC[C@H]7c7ccccc7)cc6)CC5)CC4)ccc3C2=O)C(=O)N1` [II-30], the DC50 is 100 nM.

With `O=C1CC[C@H](N2Cc3cc(N4CCN(C5CCN(c6ccc([C@@H]7c8ccc(O)cc8CC[C@@H]7c7ccccc7)cc6)CC5)CC4)ccc3C2=O)C(=O)N1` [II-31], the DC50 turned out to be 0.9 nM.

Regarding `O=C1CC[C@H](N2Cc3cc(N4CCN(C[C@H]5CC[C@H](c6ccc([C@@H]7c8ccc(O)cc8CC[C@@H]7c7ccccc7)cc6)CC5)CC4)ccc3C2=O)C(=O)N1` [II-52], the DC50 came to 0.15 nM.

For the compound `O=C1CCC(N2Cc3cc(N4CCN(CC5CCC(c6ccc([C@@H]7c8ccc(O)cc8CC[C@@H]7c7ccccc7)cc6)CC5)CC4)ccc3C2=O)C(=O)N1` (stereo partly shown) [II-53], the DC50 worked out at 0.22 nM.

Take `COc1ccc2c(c1)CC[C@H](c1ccccc1)[C@@H]2c1ccc(N2CCC(CN3CCN(c4ccc5c(c4)CN([C@H]4CCC(=O)NC4=O)C5=O)CC3)CC2)cc1` [II-59]: the DC50 is at least 10000 nM.

Turning to `O=C1CC[C@H](N2Cc3cc(N4CCN(CC5CCN(c6ccc([C@@H]7c8ccc(Cl)cc8CC[C@@H]7c7ccccc7)cc6)CC5)CC4)ccc3C2=O)C(=O)N1` [II-60], the DC50 is at least 10000 nM.

Take `O=C1CC[C@H](N2Cc3cc(N4CCN(CC5CCN(c6ccc([C@@H]7c8ccc(Br)cc8CC[C@@H]7c7ccccc7)cc6)CC5)CC4)ccc3C2=O)C(=O)N1` [II-62]: the DC50 is at least 10000 nM.

Consider `O=C1CC[C@H](N2Cc3cc(N4CCN(CC5CCN(c6ccc([C@@H]7c8ccc(O)c(Cl)c8CC[C@@H]7c7ccccc7)cc6Cl)CC5)CC4)ccc3C2=O)C(=O)N1` [II-64], for which the DC50 amounted to 16 nM.

`O=C1CC[C@H](N2Cc3cc(N4CCN(CC5CCN(c6ccc([C@@H]7c8ccc(O)c(Cl)c8CC[C@@H]7c7ccccc7)cc6)CC5)CC4)ccc3C2=O)C(=O)N1` [II-65]: the DC50 was 4 nM.

Take `O=C1CC[C@H](N2Cc3cc(N4CCN(CCCCCOc5ccc([C@@H]6c7ccc(O)cc7CC[C@@H]6c6ccccc6)cc5)CC4)ccc3C2=O)C(=O)N1` [II-66]: the DC50 worked out at 0.33 nM.
